Data: a compilation of properties of binary mixtures (doi:10.1016/j.molliq.2016.06.018)

Assay: xn = mol fraction of the nth substance listed
Conditions: 100 kPa

CCCC[n+]1ccn(C)c1.O=S(=O)([N-]S(=O)(=O)C(F)(F)F)C(F)(F)F + CCCCCCCCN1CCCC1=O
x2 = 0
Conditions	speed of sound [m/s]
298.15 K	1227.9
303.15 K	1216.8
308.15 K	1205.8
313.15 K	1195
318.15 K	1184.2
323.15 K	1173.6

CCCCCCCCN1CCCC1=O + CCCC[n+]1ccn(C)c1.O=S(=O)([N-]S(=O)(=O)C(F)(F)F)C(F)(F)F
speed of sound [m/s]
Conditions	x1 = 0.1125	x1 = 0.2205	x1 = 0.3048	x1 = 0.3915	x1 = 0.5011	x1 = 0.5983	x1 = 0.7076	x1 = 0.7976	x1 = 0.8911	x1 = 1
298.15 K	1234.8	1244.9	1255.2	1268.2	1288.3	1310.3	1341	1371.6	1406.7	1450.2
303.15 K	–	1233.4	1243.4	–	1275.5	1297	–	1356.6	1390.5	1432.6
308.15 K	1212.7	1222.1	1231.6	–	–	1283.7	1312.7	1341.5	1374.3	–
313.15 K	1201.8	–	1219.9	1231.6	1250	1270.4	1298.7	1326.5	1358.3	1398
318.15 K	1190.9	1199.6	1208.3	1219.6	1237.5	1257.3	1284.9	1311.7	1342.4	1380.9
323.15 K	1180.1	1188.4	1196.8	1207.6	1224.9	1244.2	1271.2	1297.1	–	1364
